Experimental data taken from ChEMBL document CHEMBL4680289, “10-(4-Phenylpiperazine-1-carbonyl)acridin-9(10H)-ones and related compounds: Synthesis, antiproliferative activity and inhibition of tubulin polymerization” (Bioorg Med Chem Lett, 2021).
The source made the active and inactive calls. The rule behind the calls is not given here.

Tests used:
K562 [1] = experiment: Induction of apoptosis in human K562 cells assessed as viable cells at 0.03 micromol/L measured after 48 hrs by Annexin V-FITC/7-AAD staining based flow cytometric analysis (reference value: 92.85 %); format: functional; conditions: K562, 48 h, dose 0.03 µmol/L, read-out: Activity
K562 [2] = experiment: Induction of apoptosis in human K562 cells assessed as early apoptotic cells at 0.1 uM measured after 12 hrs by Annexin V-FITC/7-AAD staining based flow cytometric analysis relative to control; format: functional
K562 [3] = experiment: Induction of apoptosis in human K562 cells assessed as viable cells at 0.3 micromol/L measured after 48 hrs by Annexin V-FITC/7-AAD staining based flow cytometric analysis (reference value: 92.85 %); format: functional; conditions: K562, 48 h, dose 0.3 µmol/L, read-out: Activity
K562 [4] = experiment: Induction of apoptosis in human K562 cells measured after 48 hrs by Annexin V-FITC/7-AAD staining based flow cytometric analysis; format: functional, cell-based; conditions: dose 0.01-3 µmol/L
K562 [5] = experiment: Induction of apoptosis in human K562 cells assessed as necrotic cells at 0.1 uM measured after 72 hrs by Annexin V-FITC/7-AAD staining based flow cytometric analysis relative to control; format: functional
[6] = Inhibition of porcine brain tubulin polymerization assessed as reduction in tubulin assembly at 37 degreeC measured after 40 mins in presence of GTP by turbidimetric analysis; set-up: species or system Sus scrofa
K562 [7] = experiment: Cell cycle arrest in human K562 cells assessed as increase in cell accumulation at G2/M phase at < 30 nM measured after 18 hrs by propidium iodide/RNase FACSCalibur staining based flow cytometry; format: functional; conditions: dose nM <30, time 18.0 hrs
K562 [8] = experiment: Induction of apoptosis in human K562 cells assessed as late apoptotic cells at 0.1 uM measured after 72 hrs by Annexin V-FITC/7-AAD staining based flow cytometric analysis relative to control; format: functional
K562 [9] = experiment: Induction of apoptosis in human K562 cells assessed as late apoptotic cells at 0.01 micromol/L measured after 48 hrs by Annexin V-FITC/7-AAD staining based flow cytometric analysis (reference value: 2.49 %); format: functional; conditions: dose 0.01 µmol/L, at 0.01 µM
K562 [10] = experiment: Induction of apoptosis in human K562 cells assessed as viable cells at 0.1 uM measured after 6 hrs by Annexin V-FITC/7-AAD staining based flow cytometric analysis relative to control; format: functional; conditions: read-out: Activity
K562 [11] = experiment: Induction of apoptosis in human K562 cells assessed as viable cells at 0.01 micromol/L measured after 48 hrs by Annexin V-FITC/7-AAD staining based flow cytometric analysis (reference value: 92.85 %); format: functional; conditions: K562, 48 h, dose 0.01 µmol/L, read-out: Activity
K562 [12] = experiment: Induction of apoptosis in human K562 cells assessed as viable cells at 0.1 micromol/L measured after 48 hrs by Annexin V-FITC/7-AAD staining based flow cytometric analysis (reference value: 92.85 %); format: functional; conditions: K562, 48 h, dose 0.1 µmol/L, read-out: Activity
K562 [13] = experiment: Induction of apoptosis in human K562 cells assessed as necrotic cells at 0.1 uM measured after 6 hrs by Annexin V-FITC/7-AAD staining based flow cytometric analysis relative to control; format: functional

## COc1cc(OC)cc(N2CCN(C(=O)n3c4ccccc4c(=O)c4ccccc43)CC2)c1
K562 [1]
  viability at 0.03 µM: 52.2%
K562 [2]
  Activity: 9.02%
K562 [3]
  viability at 0.3 µM: 42.6%
K562 [4]
  Activity: Dose-dependent effect
K562 [5]
  Activity: 4.54%
[6]
  IC50: 350 nM
K562 [7]
  Activity: Active
K562 [8]
  Activity: 65.69%
K562 [9]
  Activity: 4.85%
K562 [10]
  viability at 0.1 µM: 91.6%
K562 [11]
  viability at 0.01 µM: 88.6%
K562 [12]
  viability at 0.1 µM: 41.5%
K562 [13]
  Activity: 0.24%
